# Experimental data published in patent US20040038855A1 (priority 1999, published 2004).
# Structures can show the parent of a compound that is named as a salt.
# Assays:
# [1] = molecular target: human MCH1 receptor (Homo sapiens, UniProt Q99705); assay: Intracellular calcium response to MCH in COS-7 cells transfected with MCH1 (fluo-3, FLIPR): antagonist potency; assay type: cell-based; parameters: expressed in transfected cells; host or cells: COS-7; details: read-out: Kb (nM) hMCH1
# Source text: MCH1 antagonist compounds were identified by their ability to inhibit the MCH-elicited response. […]. From the IC50 values, the antagonist potency (Kb)was derived using the Cheng-Prussof correction (Lazareno and Birdsall, 1993). […]
# [2] = molecular target: T1, human NPY5 receptor (Homo sapiens, UniProt Q15761); assay: Binding affinity at the human NPY5 receptor; details: Table 3a; read-out: hNPY5 Ki
# T1 construct: expressed in transfected cells
# T1 sequence (Q15761 1-445): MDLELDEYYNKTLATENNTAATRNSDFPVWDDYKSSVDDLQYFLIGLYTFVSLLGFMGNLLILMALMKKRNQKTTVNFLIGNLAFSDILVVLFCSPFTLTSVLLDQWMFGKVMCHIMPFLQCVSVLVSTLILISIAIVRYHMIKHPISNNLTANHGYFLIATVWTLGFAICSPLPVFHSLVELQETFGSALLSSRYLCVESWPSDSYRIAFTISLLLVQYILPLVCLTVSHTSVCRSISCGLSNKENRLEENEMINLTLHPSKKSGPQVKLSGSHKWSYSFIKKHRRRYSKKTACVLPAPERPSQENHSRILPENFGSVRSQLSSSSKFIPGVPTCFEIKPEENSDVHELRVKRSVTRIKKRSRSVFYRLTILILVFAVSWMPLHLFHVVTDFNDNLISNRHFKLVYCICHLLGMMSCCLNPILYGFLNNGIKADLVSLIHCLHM
# Source text: (§1) The design of such compounds can be optimized by determining their binding affinity at the recombinant MCH1, NPY1, NPY2, Gal1, Gal2, Gal3, and 5HT2C receptors. The methods to obtain the cDNA of the receptor, express said receptors in heterologous systems, and carry out assays to determine binding affinity are described in the following publications: human NPY1 (Larhammar et al., 1992), human NPY5 (U.S. Pat. No. 5,602,024, the disclosure of which is hereby incorporated by reference in its entirety into this application), human Gall (Habert-Ortoli et al., 1994), human Gal2 (Smith et al., 1997), human Gal3 (Smith et al., 1998), and rat 5HT2C (Julius et al., 1988). Additionally, the compounds would optimally not bind at the following receptors due to possible side effects: human H1 histamine and human H2 histamine receptors; human alpha-1A adrenergic, human alpha-1D adrenergic, human alpha-2A adrenergic, human alpha-2B adrenergic, and human alpha-2C adrenergic receptors; human dopamine D1, D2, D3, D4, and D5 receptors; the β-adrenoceptor; and the human 5HT1A, human 5HT1B, human 5HT1D, human 5HT1E, human 5HT1F, human 5HT2A, rat 5HT2C, human 5HT4, human 5HT6, and human 5HT7 receptors.
# [3] = molecular target: T2, human GALR1 receptor (Homo sapiens, UniProt P47211); assay: Binding affinity at the human GALR1 receptor; details: Table 3a; read-out: hGALR1 Ki
# T2 construct: expressed in transfected cells
# T2 sequence (P47211 1-349): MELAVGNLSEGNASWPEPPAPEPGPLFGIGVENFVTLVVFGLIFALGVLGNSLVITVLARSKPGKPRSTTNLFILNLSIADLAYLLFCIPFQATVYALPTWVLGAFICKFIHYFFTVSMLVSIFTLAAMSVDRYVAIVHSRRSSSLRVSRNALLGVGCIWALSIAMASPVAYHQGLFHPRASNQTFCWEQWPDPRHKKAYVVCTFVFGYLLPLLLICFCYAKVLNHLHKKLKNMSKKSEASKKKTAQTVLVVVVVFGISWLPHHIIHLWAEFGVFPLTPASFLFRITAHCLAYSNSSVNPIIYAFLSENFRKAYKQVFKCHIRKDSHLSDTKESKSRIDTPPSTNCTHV
# Source text: as §1
# [4] = molecular target: T3, human GALR2 receptor (Homo sapiens, UniProt O43603); assay: Binding affinity at the human GALR2 receptor; details: Table 3a; read-out: hGALR2 Ki
# T3 construct: expressed in transfected cells
# T3 sequence (O43603 1-387): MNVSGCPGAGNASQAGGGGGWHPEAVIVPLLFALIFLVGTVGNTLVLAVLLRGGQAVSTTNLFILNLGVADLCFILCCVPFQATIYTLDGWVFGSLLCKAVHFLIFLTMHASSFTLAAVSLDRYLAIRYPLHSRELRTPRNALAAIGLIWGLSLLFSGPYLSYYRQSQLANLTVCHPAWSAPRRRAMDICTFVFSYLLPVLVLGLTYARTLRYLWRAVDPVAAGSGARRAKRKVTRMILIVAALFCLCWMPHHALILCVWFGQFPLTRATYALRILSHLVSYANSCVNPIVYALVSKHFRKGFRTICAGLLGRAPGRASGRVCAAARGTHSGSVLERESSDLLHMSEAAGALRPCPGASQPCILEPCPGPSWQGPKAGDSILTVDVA
# Source text: as §1
# [5] = molecular target: T4, human GALR3 receptor (Homo sapiens, UniProt O60755); assay: Binding affinity at the human GALR3 receptor; details: Table 3a; read-out: hGALR3 Ki
# T4 construct: expressed in transfected cells
# T4 sequence (O60755 1-368): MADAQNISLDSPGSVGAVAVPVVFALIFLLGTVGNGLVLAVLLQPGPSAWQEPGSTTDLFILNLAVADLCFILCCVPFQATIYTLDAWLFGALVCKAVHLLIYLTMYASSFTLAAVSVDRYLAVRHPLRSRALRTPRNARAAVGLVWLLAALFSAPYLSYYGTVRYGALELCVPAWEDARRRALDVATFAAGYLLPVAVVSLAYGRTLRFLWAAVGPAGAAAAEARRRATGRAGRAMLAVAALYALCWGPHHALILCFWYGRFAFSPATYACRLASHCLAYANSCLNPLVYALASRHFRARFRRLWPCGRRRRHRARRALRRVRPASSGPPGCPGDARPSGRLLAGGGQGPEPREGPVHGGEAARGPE
# Source text: as §1
# [6] = molecular target: T5, rat 5HT2C receptor (Rattus norvegicus, UniProt P08909); assay: Binding affinity at the rat 5HT2C receptor; details: Table 3a; read-out: r5HT2C Ki
# T5 construct: expressed in transfected cells
# T5 sequence (P08909 33-460): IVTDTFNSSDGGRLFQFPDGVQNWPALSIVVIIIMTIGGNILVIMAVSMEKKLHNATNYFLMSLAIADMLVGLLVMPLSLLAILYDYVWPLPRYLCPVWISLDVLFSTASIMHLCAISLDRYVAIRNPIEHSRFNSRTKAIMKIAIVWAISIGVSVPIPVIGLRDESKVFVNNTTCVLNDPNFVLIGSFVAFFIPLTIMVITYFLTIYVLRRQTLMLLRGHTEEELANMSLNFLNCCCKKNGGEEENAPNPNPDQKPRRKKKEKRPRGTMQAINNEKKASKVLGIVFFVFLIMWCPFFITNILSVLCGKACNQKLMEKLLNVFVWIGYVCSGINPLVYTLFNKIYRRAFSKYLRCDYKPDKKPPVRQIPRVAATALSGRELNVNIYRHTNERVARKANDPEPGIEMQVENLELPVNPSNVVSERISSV
# Source text: as §1
# Other 5HT Receptors: Other serotonin receptor binding assays were performed according to published methods: rat 5HT2C receptor (Julius et al., 1988); and 5HT6 (Monsma, et al., 1993). The binding assays using the 5HT4 receptor were performed according to the procedures described in U.S. Pat. No. 5,766,879, the disclosure of which is hereby incorporated by reference in its entirety into this application.
# [7] = molecular target: T6, human NPY1 receptor (Homo sapiens, UniProt P25929); assay: Binding affinity at the human NPY1 receptor; details: Table 3a; read-out: hMPY1 Ki
# T6 construct: expressed in transfected cells
# T6 sequence (P25929 1-384): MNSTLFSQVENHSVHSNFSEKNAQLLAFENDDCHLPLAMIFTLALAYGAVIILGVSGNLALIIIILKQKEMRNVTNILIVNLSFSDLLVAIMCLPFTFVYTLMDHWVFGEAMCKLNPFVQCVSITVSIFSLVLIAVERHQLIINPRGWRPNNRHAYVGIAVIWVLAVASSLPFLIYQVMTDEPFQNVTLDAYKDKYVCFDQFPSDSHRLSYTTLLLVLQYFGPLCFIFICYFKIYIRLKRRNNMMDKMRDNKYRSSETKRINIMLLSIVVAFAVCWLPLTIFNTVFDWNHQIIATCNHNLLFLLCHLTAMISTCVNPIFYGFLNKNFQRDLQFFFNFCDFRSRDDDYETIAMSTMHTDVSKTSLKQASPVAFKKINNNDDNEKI
# Source text: as §1
# Sequence of human MCH1 receptor (Q99705 whole entry): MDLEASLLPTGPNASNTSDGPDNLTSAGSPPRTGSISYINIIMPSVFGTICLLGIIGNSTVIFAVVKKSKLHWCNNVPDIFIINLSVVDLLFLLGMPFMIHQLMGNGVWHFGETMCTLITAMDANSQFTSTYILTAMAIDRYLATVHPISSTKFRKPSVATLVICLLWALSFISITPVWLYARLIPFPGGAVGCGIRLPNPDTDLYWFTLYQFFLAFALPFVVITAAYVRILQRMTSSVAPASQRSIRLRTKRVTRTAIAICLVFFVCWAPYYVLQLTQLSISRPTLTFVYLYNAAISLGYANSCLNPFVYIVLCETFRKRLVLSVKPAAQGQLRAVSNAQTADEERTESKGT
Kb [1],Ki [2],Ki [3],Ki [4],Ki [5],Ki [6],Ki [7],Compound
41 nM,,,,,,,"CCn1c(=O)n(C2CCN(CCCNC(=O)N3C(=O)NC(C)=C(C(=O)OC)C3c3ccc(F)c(F)c3)CC2)c2ccccc21 (single isomer, unassigned; (+)) [Example 7, (+)-1,2,3,6-TETRAHYDRO-1-{N-[4-(N′-ETHYL)-N-BENZIMIDAZOLYL-PIPERIDIN-1YL]PROPYL}CARBOXAMIDO-4-METHYL-6-(3,4-DIFLUOROPHENYL)-2-OXOPYRIMIDINE HYDROCHLORIDE]"
29 nM,,,,,,,"CC(=O)C1=C(C)NC(=O)N(C(=O)NCCCN2CCC(c3ccc(F)cc3)CC2)C1c1cc(F)c(F)c(F)c1 (single isomer, unassigned; (+)) [Example 12, (+)-1,2,3,6-TETRA HYDRO-1-{N-[4-(4-FLUOROPHENYL)-PIPERIDINE-1-YL]-PROPYL]CARBOXAMIDO-5-ACETYL-2-OXO-6-(3,4,5-TRI FLUORO PHENYL)-4-METHYL PYRIMIDINE HYDROCHLORIDE]"
289 nM,,,,,,,"COCC1=C(C(=O)OC)C(c2ccc(F)c(F)c2)N(C(=O)NCCCN2CCC(c3cc(F)ccc3OC)CC2)C(=O)N1 (single isomer, unassigned; (+)) [Example 15]"
373 nM,,,,,,,"COCC1=C(C(=O)OC)C(c2ccc(F)c(F)c2)N(C(=O)NCCCN2CCC(c3ccccn3)CC2)C(=O)N1 (single isomer, unassigned; (+)) [Example 17, (+)-6-(3,4-DIFLUOROPHENYL)-1-{N-[4-(2-PYRIDYL)PIPERIDIN-1-YL]-PROPYL}CARBOXAMIDO-5-METHOXYCARBONYL-4-METHOXYMETHYL-2-OXO-1,2,3,6-TETRAHYDROPYRIMIDINE DIHYDROCHLORIDE]"
12 nM,,,,,,,"COCC1=C(C(=O)OC)C(c2ccc(F)c(F)c2)N(C(=O)NCCCN2CCC(c3cc(F)c(F)c(F)c3)CC2)C(=O)N1 (single isomer, unassigned; (+)) [Example 33, (+)-1,2,3,6-TETRAHYDRO-1-{N-[4-(3,4,5-TRIFLUORO)-PHENYL-PIPERIDIN-1-YL]PROPYL}CARBOXAMIDO-4-METHOXYMETHYL-6-(3,4-DIFLUOROPHENYL)-2-OXOPYRIMIDINE-5-CARBOXYLIC ACID METHYL ESTER]"
68 nM,,,,,,,"COC(=O)C1=C(C)NC(=O)N(C(=O)NCCCN2CCC3(CC2)C(=O)CCc2ccccc23)C1c1ccc2nonc2c1 (centres unmarked) [Example 23, HYDROCHLORIDE]"
,> 50 µM,> 50 µM,> 50 µM,> 50 µM,41 µM,,CCN1c2ccc(/C=C3\SC(=S)NC3=O)cc2C(C)=CC1(C)C [Example 25]
,> 50 µM,> 50 µM,> 50 µM,> 50 µM,,> 50 µM,"Fc1ccc(C(c2ccc(F)cc2)N2CCN(C/C=C/c3ccccc3)CC2)cc1 [Example 26, 1-[BIS(4-FLUOROPHENYL)METHYL]-4-(3-PHENYL-2-PROPENYL)PIPERAZINE]"
,> 50 µM,> 50 µM,> 50 µM,> 50 µM,> 50 µM,> 50 µM,Cc1cc(O)cc(O)c1/C=N/c1ccc(-c2cn3ccccc3n2)cc1 [Example 27]
,> 50 µM,> 50 µM,> 50 µM,> 50 µM,34.1 µM,,"O=C(CCCN1CCC(NC(=O)c2ccccc2)CC1)c1ccc(Cl)cc1 [Example 28, [3-(4-CHLOROBENZOYL)]PROPYL-4-BENZAMIDOPIPERIDINE]"
,> 50 µM,> 50 µM,> 50 µM,> 50 µM,8.86 µM,> 50 µM,"CN1CN(c2ccccc2)C2(CCN(CCCC(=O)c3ccc(F)cc3)CC2)C1=O [Example 30, N-METHYL-8-[4-(4-FLUOROPHENYL)-4-OXOBUTYL]-1-PHENYL-1,3,8-TRI-[4.5]DECAN-4-ONE]"

Compound,Kb [1],Ki [2],Ki [3],Ki [4],Ki [5],Ki [6],Ki [7]
"CCC1=C(C(N)=O)C(c2ccc(F)c(F)c2)N(C(=O)NCCCN2CCC3(CC2)OCc2ccccc23)C(=O)N1 (single isomer, unassigned; (+)) [Example 22, (+)-1,2,3,6-TETRAHYDRO-1-{N-[4-(BENZO-4′,5′(H)FURAN)PIPERIDIN-1-YL]PROPYL}CARBOXAMIDO-4-ETHYL-6-(3,4-DIFLUOROPHENYL)-2-OXO-PYRIMIDINE-5-CARBOXAMIDE HYDROCHLORIDE]",40 nM,,,,,,
"COCC1=C(C(=O)OC)C(c2ccc(F)c(F)c2)N(C(=O)NCCCN2CCC(C)(c3ccccc3)CC2)C(=O)N1 (single isomer, unassigned; (+)) [Example 36, (+)-1,2,3,6-TETRAHYDRO-5-METHOXYCARBONYL-4-METHOXYMETHYL-2-OXO-1-{N-[3-(4-METHYL-4-PHENYL PIPERIDINE-1-YL]PROPYL}-6-(3,4-DIFLUOROPHENYL) PYRIMIDINE]",406 nM,,,,,,
